According to ChEMBL document CHEMBL1681728, “An automated, polymer-assisted strategy for the preparation of urea and thiourea derivatives of 15-membered azalides as potential antimalarial chemotherapeutics” (Bioorg Med Chem, 2011):
pIC50: −log10 of the molar value.

What was measured:
Type in all cases: functional, organism-based
[1] = test system: Plasmodium falciparum; assay: Antimalarial activity against multidrug-resistant Plasmodium falciparum TM91C235 assessed as inhibition of [3H]hypoxanthine incorporation after 96 hrs by microtiter plate scintillation counting
[2] = test system: Plasmodium falciparum; assay: Antimalarial activity against chloroquine-sensitive Plasmodium falciparum D6 assessed as inhibition of [3H]hypoxanthine incorporation after 96 hrs by microtiter plate scintillation counting
[3] = test system: Plasmodium falciparum; assay: Antimalarial activity against chloroquine-,pyrimethamine-resistant Plasmodium falciparum W2 assessed as inhibition of [3H]hypoxanthine incorporation after 96 hrs by microtiter plate scintillation counting

Row | SMILES | pIC50 [1] | pIC50 [2] | pIC50 [3]
1 | CC[C@H]1OC(=O)[C@H](C)[C@@H](O[C@H]2C[C@@](C)(OC)[C@@H](O)[C@H](C)O2)[C@H](C)[C@@H](O[C@@H]2O[C@H](C)C[C@H](N(C)C)[C@H]2O)[C@](C)(O)C[C@@H](C)CN(CCCNC(=S)Nc2cc(Cl)cc(Cl)c2)[C@H](C)[C@@H](O)[C@]1(C)O | 7.26 | 6.94 | 7.37
2 | CC[C@H]1OC(=O)[C@H](C)[C@@H](O[C@H]2C[C@@](C)(OC)[C@@H](O)[C@H](C)O2)[C@H](C)[C@@H](O[C@@H]2O[C@H](C)C[C@H](N(C)C)[C@H]2O)[C@](C)(O)C[C@@H](C)CN(CCCNC(=S)Nc2cccc(-c3ccccc3)c2OC)[C@H](C)[C@@H](O)[C@]1(C)O | 7.26 | 7.24 | 6.95
3 | CC[C@H]1OC(=O)[C@H](C)[C@@H](O[C@H]2C[C@@](C)(OC)[C@@H](O)[C@H](C)O2)[C@H](C)[C@@H](O[C@@H]2O[C@H](C)C[C@H](N(C)C)[C@H]2O)[C@](C)(O)C[C@@H](C)CN(CCCNC(=S)Nc2ccc(Cl)c(C(F)(F)F)c2)[C@H](C)[C@@H](O)[C@]1(C)O | 7.25 | 7.27 | 7.46
4 | CC[C@H]1OC(=O)[C@H](C)[C@@H](O[C@H]2C[C@@](C)(OC)[C@@H](O)[C@H](C)O2)[C@H](C)[C@@H](O[C@@H]2O[C@H](C)C[C@H](N(C)C)[C@H]2O)[C@](C)(O)C[C@@H](C)CN(CCCNC(=O)Nc2ccc3c(c2)OCCCO3)[C@H](C)[C@@H](O)[C@]1(C)O | 7.22 | 7.55 | 7.39
5 | CC[C@H]1OC(=O)[C@H](C)[C@@H](O[C@H]2C[C@@](C)(OC)[C@@H](O)[C@H](C)O2)[C@H](C)[C@@H](O[C@@H]2O[C@H](C)C[C@H](N(C)C)[C@H]2O)[C@](C)(O)C[C@@H](C)CN(CCCNC(=O)Nc2cccc3nsnc23)[C@H](C)[C@@H](O)[C@]1(C)O | 7.19 | 6.57 | 7.16
6 | CC[C@H]1OC(=O)[C@H](C)[C@@H](O[C@H]2C[C@@](C)(OC)[C@@H](O)[C@H](C)O2)[C@H](C)[C@@H](O[C@@H]2O[C@H](C)C[C@H](N(C)C)[C@H]2O)[C@](C)(O)C[C@@H](C)CN(CCCNC(=S)Nc2ccc(S(=O)(=O)N3CCCCC3)cc2)[C@H](C)[C@@H](O)[C@]1(C)O | 7.17 | 6.76 | 7.28
7 | CC[C@H]1OC(=O)[C@H](C)[C@@H](O[C@H]2C[C@@](C)(OC)[C@@H](O)[C@H](C)O2)[C@H](C)[C@@H](O[C@@H]2O[C@H](C)C[C@H](N(C)C)[C@H]2O)[C@](C)(O)C[C@@H](C)CN(CCCNC(=S)Nc2ccc([N+](=O)[O-])cc2OC)[C@H](C)[C@@H](O)[C@]1(C)O | 7.16 | 7.13 | 7.30
8 | CC[C@H]1OC(=O)[C@H](C)[C@@H](O[C@H]2C[C@@](C)(OC)[C@@H](O)[C@H](C)O2)[C@H](C)[C@@H](O[C@@H]2O[C@H](C)C[C@H](N(C)C)[C@H]2O)[C@](C)(O)C[C@@H](C)CN(CCCNC(=O)Nc2cccc(C(F)(F)F)c2)[C@H](C)[C@@H](O)[C@]1(C)O | 7.14 | 6.59 | 6.87
9 | CC[C@H]1OC(=O)[C@H](C)[C@@H](O[C@H]2C[C@@](C)(OC)[C@@H](O)[C@H](C)O2)[C@H](C)[C@@H](O[C@@H]2O[C@H](C)C[C@H](N(C)C)[C@H]2O)[C@](C)(O)C[C@@H](C)CN(CCCNC(=S)Nc2ccc(F)c(F)c2F)[C@H](C)[C@@H](O)[C@]1(C)O | 7.13 | 6.35 | 6.78
10 | CC[C@H]1OC(=O)[C@H](C)[C@@H](O[C@H]2C[C@@](C)(OC)[C@@H](O)[C@H](C)O2)[C@H](C)[C@@H](O[C@@H]2O[C@H](C)C[C@H](N(C)C)[C@H]2O)[C@](C)(O)C[C@@H](C)CN(CCCNC(=S)Nc2ccc(C#N)cc2)[C@H](C)[C@@H](O)[C@]1(C)O | 7.11 | 6.88 | 7.30
11 | CC[C@H]1OC(=O)[C@H](C)[C@@H](O[C@H]2C[C@@](C)(OC)[C@@H](O)[C@H](C)O2)[C@H](C)[C@@H](O[C@@H]2O[C@H](C)C[C@H](N(C)C)[C@H]2O)[C@](C)(O)C[C@@H](C)CN(CCCNC(=O)Nc2ccc(C(C)C)cc2)[C@H](C)[C@@H](O)[C@]1(C)O | 7.11 | 6.65 | 7.15
12 | CC[C@H]1OC(=O)[C@H](C)[C@@H](O[C@H]2C[C@@](C)(OC)[C@@H](O)[C@H](C)O2)[C@H](C)[C@@H](O[C@@H]2O[C@H](C)C[C@H](N(C)C)[C@H]2O)[C@](C)(O)C[C@@H](C)CN(CCCNC(=O)Nc2ccc(C(F)(F)F)cc2)[C@H](C)[C@@H](O)[C@]1(C)O | 7.07 | 6.80 | 7.13
13 | CC[C@H]1OC(=O)[C@H](C)[C@@H](O[C@H]2C[C@@](C)(OC)[C@@H](O)[C@H](C)O2)[C@H](C)[C@@H](O[C@@H]2O[C@H](C)C[C@H](N(C)C)[C@H]2O)[C@](C)(O)C[C@@H](C)CN(CCCNC(=S)Nc2ccc(Cl)c(Cl)c2)[C@H](C)[C@@H](O)[C@]1(C)O | 7.07 | 6.53 | 6.64
